{
  "source": "paper PMC6934184",
  "about": "“Selective DNA-PKcs inhibition extends the therapeutic index of localized radiotherapy and chemotherapy” (The Journal of Clinical Investigation, 2019)",
  "target": "T1, PAK1 (Homo sapiens, UniProt Q13153)",
  "T1 construct": "purchased Thermo Fisher Scientific (Life Technologies) SelectScreen",
  "T1 sequence (Q13153 whole entry)": "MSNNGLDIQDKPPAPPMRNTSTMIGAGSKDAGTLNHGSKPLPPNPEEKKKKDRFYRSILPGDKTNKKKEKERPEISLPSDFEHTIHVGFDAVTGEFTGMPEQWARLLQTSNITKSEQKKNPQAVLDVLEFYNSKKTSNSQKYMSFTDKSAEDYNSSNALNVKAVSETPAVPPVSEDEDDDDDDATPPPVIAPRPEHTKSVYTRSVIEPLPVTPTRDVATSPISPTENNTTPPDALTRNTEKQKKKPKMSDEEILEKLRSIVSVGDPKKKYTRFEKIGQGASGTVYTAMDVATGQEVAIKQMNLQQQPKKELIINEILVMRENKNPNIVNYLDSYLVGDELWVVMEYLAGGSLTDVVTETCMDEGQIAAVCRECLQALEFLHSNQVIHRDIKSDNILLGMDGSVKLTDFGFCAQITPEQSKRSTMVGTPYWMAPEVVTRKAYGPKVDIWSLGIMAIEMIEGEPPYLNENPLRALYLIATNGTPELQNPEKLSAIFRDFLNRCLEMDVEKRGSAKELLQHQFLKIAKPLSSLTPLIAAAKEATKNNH",
  "experiment": "SelectScreen Z'LYTE",
  "assay_type": "biochemical",
  "procedure,_shortened": "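Percent values come from Thermo SelectScreen profiling of NU5455, combining activity and binding assays. CSF1R was run in Z'LYTE format at Km app ATP, and CAMK1 in Adapta format with ATP listed at 10.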",
  "data": [
    {"smiles": "CN(C(=O)CN1CCOCC1)c1ccc2sc3c(-c4cccc5c(=O)cc(N6CC7CCC(C6)O7)oc45)cccc3c2c1", "note": "[NU5455]", "values": [
      {"measurement": "inhibition at 1 µM", "result": -4.4, "unit": "%"}
    ]}
  ]
}
